This test concerns multidrug-resistant Pseudomonas aeruginosa strain (S-2838 strain). The experiment in a line: Test for protection against systemic infection in mouse with multidrug-resistant Pseudomonas aeruginosa. It counts as in vivo, ICR male SPF mice. The conditions noted are these: sc, 72 h, read-out: survival rate. On the procedure: As mice, ICR male SPF mice (4 weeks old: 10 mice per group) were used. Clinically isolated multidrug-resistant Pseudomonas aeruginosa strain (S-2838 strain) cultured overnight on a Mueller-Hinton agar plate at 37° C. was cultured on a cation-adjusted Mueller Hinton medium for 5 hours, and then diluted 20-fold with a 10% mucin/phosphate buffer, thereby preparing an inoculum. An infection was induced by intraperitoneally inoculating the mice with the inoculum at 0.5 mL (about 10^6 CFU/mouse). Each test compound was dissolved in physiological saline, and 1 hour after the infection, the compound was subcutaneously administered once to the mice at 40 mg/kg. The control group was administered with the same amount of physiological saline used as a vehicle. The number of surviving mice was recorded 3 days after the infection.
A test for protection against systemic infection in a mouse with multidrug-resistant Pseudomonas aeruginosa was performed in the same manner as in Test Example 2.
As for `CC(C)(O/N=C(\C(=O)N[C@@H]1C(=O)N2C[C@@](C(=O)O)(N3CCN(NC(=O)C(=O)c4ccc(O)c(O)c4Cl)C3=O)S[C@H]12)c1csc(N)n1)C(=O)O` [Example 20, (3R,5R,6R)-6-((Z)-2-(2-aminothiazol-4-yl)-2-(((2-carboxypropan-2-yl)oxy)imino)acetamido)-3-(3-(2-(2-chloro-3,4-dihydroxyphenyl)-2-oxoacetamido)-2-oxoimidazolidin-1-yl)-7-oxo-4-thia-1-azabicyclo[3.2.0]heptane-3-carboxylate], the responders at 40 mg/kg was not below 90%.

Turning to `Nc1nc(/C(=N/OC2(C(=O)O)CC2)C(=O)N[C@@H]2C(=O)N3C[C@@](C(=O)O)(N4CCN(NC(=O)C(=O)c5ccc(O)c(O)c5Cl)C4=O)S[C@H]23)cs1` [Example 21, (3R,5R,6R)-6-((Z)-2-(2-aminothiazol-4-yl)-2-((1-carboxycyclopropoxy)imino)acetamido)-3-(3-(2-(2-chloro-3,4-dihydroxyphenyl)-2-oxoacetamido)-2-oxoimidazolidin-1-yl)-7-oxo-4-thia-1-azabicyclo[3.2.0]heptane-3-carboxylate], the responders at 40 mg/kg is not below 90%.

As for `CC(C)(O/N=C(\C(=O)N[C@@H]1C(=O)N2C[C@@](C(=O)O)(N3CCN(NC(=O)C(=O)c4ccc(O)c(O)c4Cl)C3=O)S[C@H]12)c1nc(N)sc1Cl)C(=O)O` [Example 22, (3R,5R,6R)-6-((Z)-2-(2-amino-5-chlorothiazol-4-yl)-2-(((2-carboxypropan-2-yl)oxy)imino)acetamido)-3-(3-(2(2-chloro-3,4-dihydroxyphenyl)-2-oxoacetamido)-2-oxoimidazolidin-1-yl)-7-oxo-4-thia-1-azabicyclo[3.2.0]heptane-3-carboxylate], the responders at 40 mg/kg was not below 90%.

As for `CC(C)(O/N=C(\C(=O)N[C@@H]1C(=O)N2C[C@@](C(=O)O)(N3CCN(NC(=O)C(=O)c4ccc(O)c(O)c4Cl)C3=O)S[C@H]12)c1nsc(N)n1)C(=O)O` [Example 23, (3R,5R,6R)-6-((Z)-2-(5-amino-1,2,4-thiadiazol-3-yl)-2-(((2-carboxypropan-2-yl)oxy)imino)acetamido)-3-(3-(2-(2-chloro-3,4-dihydroxyphenyl)-2-oxoacetamido)-2-oxoimidazolidin-1-yl)-7-oxo-4-thia-1-azabicyclo[3.2.0]heptane-3-carboxylate], the responders at 40 mg/kg is not below 90%.

For `Nc1nc(/C(=N/OC2(C(=O)O)CC2)C(=O)N[C@@H]2C(=O)N3C[C@@](C(=O)O)(N4CCN(NC(=O)CCNC(=O)C(=O)c5ccc(O)c(O)c5Cl)C4=O)S[C@H]23)cs1` [Example 31, (3R,5R,6R)-6-((Z)-2-(2-aminothiazol-4-yl)-2-((1-carboxycyclopropoxy)imino)acetamido)-3-(3-(3-(2-(2-chloro-3,4-dihydroxyphenyl)-2-oxoacetamido)propanamido)-2-oxoimidazolidin-1-yl)-7-oxo-4-thia-1-azabicyclo[3.2.0]heptane-3-carboxylate], the responders at 40 mg/kg was not below 90%.

With `CC(C)(O/N=C(\C(=O)N[C@@H]1C(=O)N2C[C@@](C(=O)O)(N3CCN(NC(=O)c4cc(Cl)c(O)c(O)c4Cl)C3=O)S[C@H]12)c1csc(N)n1)C(=O)O` [Example 83, (3R,5R,6R)-6-((Z)-2-(2-aminothiazol-4-yl)-2-(((2-carboxypropan-2-yl)oxy)imino)acetamido)-3-(3-(2,5-dichloro-3,4-dihydroxybenzamido)-2-oxoimidazolidin-1-yl)-7-oxo-4-thia-1-azabicyclo[3.2.0]heptane-3-carboxylate], the responders at 40 mg/kg was not below 90%.

With `CC[C@H](O/N=C(\C(=O)N[C@@H]1C(=O)N2C[C@@](C(=O)O)(N3CCN(NC(=O)C(=O)c4ccc(O)c(O)c4Cl)C3=O)S[C@H]12)c1csc(N)n1)C(=O)O` [Example 105, (3R,5R,6R)-6-((Z)-2-(2-aminothiazol-4-yl)-2-(((S)-1-carboxypropoxy)imino)acetamido)-3-(3-(2-(2-chloro-3,4-dihydroxyphenyl)-2-oxoacetamido)-2-oxoimidazolidin-1-yl)-7-oxo-4-thia-1-azabicyclo[3.2.0]heptane-3-carboxylate], the responders at 40 mg/kg was not below 90%.

Turning to `CC(C)[C@H](O/N=C(\C(=O)N[C@@H]1C(=O)N2C[C@@](C(=O)O)(N3CCN(NC(=O)C(=O)c4ccc(O)c(O)c4Cl)C3=O)S[C@H]12)c1csc(N)n1)C(=O)O` [Example 114, (3R,5R,6R)-6-((Z)-2-(2-aminothiazol-4-yl)-2-(((S)-1-carboxy-2-methylpropoxy)imino)acetamido)-3-(3-(2-(2-chloro-3,4-dihydroxyphenyl)-2-oxoacetamido)-2-oxoimidazolidin-1-yl)-7-oxo-4-thia-1-azabicyclo[3.2.0]heptane-3-carboxylate], the responders at 40 mg/kg is not below 90%.

Turning to `CC(C)(O/N=C(\C(=O)N[C@@H]1C(=O)N2C[C@@](C(=O)O)(N3CCN(NC(=O)/C(=N\O)c4ccc(O)c(O)c4Cl)C3=O)S[C@H]12)c1csc(N)n1)C(=O)O` [Example 117, (3R,5R,6R)-6-((Z)-2-(2-aminothiazol-4-yl)-2-(((2-carboxypropan-2-yl)oxy)imino)acetamido)-3-(3-((Z)-2-(2-chloro-3,4-dihydroxyphenyl)-2-(hydroxyimino)acetamido)-2-oxoimidazolidin-1-yl)-7-oxo-4-thia-1-azabicyclo[3.2.0]heptane-3-carboxylate], the responders at 40 mg/kg is not below 90%.

As for `CC(C)(O/N=C(\C(=O)N[C@@H]1C(=O)N2C[C@@](C(=O)O)(N3CCN(NC(=O)CCNC(=O)/C(=N\O)c4ccc(O)c(O)c4Cl)C3=O)S[C@H]12)c1csc(N)n1)C(=O)O` [Example 122, (3R,5R,6R)-6-((Z)-2-(2-aminothiazol-4-yl)-2-(((2-carboxypropan-2-yl)oxy)imino)acetamido)-3-(3-(3-((Z)-2-(2-chloro-3,4-dihydroxyphenyl)-2-(hydroxyimino)acetamido)propanamido)-2-oxoimidazolidin-1-yl)-7-oxo-4-thia-1-azabicyclo[3.2.0]heptane-3-carboxylate], the responders at 40 mg/kg is not below 90%.

With `CC(C)(O/N=C(\C(=O)N[C@@H]1C(=O)N2C[C@@](C(=O)O)(N3CCN(NC(=O)C(=O)c4ccc(O)c(O)c4Cl)C(=O)C3=O)S[C@H]12)c1csc(N)n1)C(=O)O` [Example 126, (3R,5R,6R)-6-((Z)-2-(2-aminothiazol-4-yl)-2-(((2-carboxypropan-2-yl)oxy)imino)acetamido)-3-(4-(2-(2-chloro-3,4-dihydroxyphenyl)-2-oxoacetamido)-2,3-dioxopiperazin-1-yl)-7-oxo-4-thia-1-azabicyclo[3.2.0]heptane-3-carboxylate], the responders at 40 mg/kg was not below 90%.

For the molecule `COC[C@@H](NC(=O)C(=O)c1ccc(O)c(O)c1Cl)C(=O)NN1CCN([C@]2(C(=O)O)CN3C(=O)[C@@H](NC(=O)/C(=N\OC(C)(C)C(=O)O)c4csc(N)n4)[C@H]3S2)C1=O` [Example 139, (3R,5R,6R)-6-((Z)-2-(2-aminothiazol-4-yl)-2-(((2-carboxypropan-2-yl)oxy)imino)acetamido)-3-(3-((R)-2-(2-(2-chloro-3,4-dihydroxyphenyl)-2-oxoacetamido)-3-methoxypropanamido)-2-oxoimidazolidin-1-yl)-7-oxo-4-thia-1-azabicyclo[3.2.0]heptane-3-carboxylate], the responders at 40 mg/kg was not below 90%.
